According to ChEMBL document CHEMBL4033751, “Synthesis and biological evaluation of caffeic acid derivatives as potent inhibitors of α-MSH-stimulated melanogenesis” (Bioorg Med Chem Lett, 2017):

Columns and labels:
[1] = Cytotoxicity in mouse B16 cells assessed as cell viability at 10 uM by MTT assay; assay type: cell-based; settings: read-out: Activity
[2] = test system: B16; assay: Inhibition of alpha-MSH-stimulated melanogenesis in mouse B16 cells assessed as reduction in melanin formation; assay type: functional, cell-based
[3] = Cytotoxicity in mouse B16 cells assessed as cell viability at 5 uM by MTT assay; assay type: cell-based; settings: read-out: Activity
[4] = Cytotoxicity in mouse B16 cells assessed as cell viability at 2.5 uM by MTT assay; assay type: cell-based; settings: read-out: Activity
[5] = Cytotoxicity in mouse B16 cells assessed as cell viability at 20 uM by MTT assay; assay type: cell-based; settings: read-out: Activity
[6] = Cytotoxicity in mouse B16 cells assessed as cell viability at 40 uM by MTT assay; assay type: cell-based; settings: read-out: Activity

Row | Structure (SMILES) | viability at 10 µM [1] [%] | IC50 [2] [µM] | viability at 5 µM [3] [%] | viability at 2.5 µM [4] [%] | viability at 20 µM [5] [%] | viability at 40 µM [6] [%]
1 | O=C(/C=C/c1ccc(O)c(O)c1)Nc1ccccc1 | 21 | 7.6 |  |  |  | 
2 | Cc1n[nH]c(NC(=O)/C=C/c2ccc(O)c(O)c2)c1-c1ccc(Br)cc1 |  | 1 | 68 to 93 | 29 to 56 |  | 
3 | COC(=O)[C@]1(O)C[C@@H](O)[C@@H](O)[C@H](OC(=O)/C=C/c2ccc(O)c(O)c2)C1 [CHLOROGENIC ACID METHYL ESTER] |  | > 40 |  |  |  | 
4 | O=C(/C=C/c1ccc(O)c(O)c1)N1CCNCC1 |  | > 40 |  |  | 31 | 
5 | O=C(/C=C/c1ccc(O)c(O)c1)NCc1cccc(C(F)(F)F)c1 | 29 to 47 | 1.4 | 24 |  |  | 
6 | O=c1cc(CO)occ1O [KOJIC ACID] |  | 57 |  |  |  | 
7 | O=C(/C=C/c1ccc(O)c(O)c1)NC1CCCC1 |  | 30 |  |  |  | 0
8 | O=C(/C=C/c1ccc(O)c(O)c1)OC1CCCCC1 | 30 | 7 |  |  |  | 
9 | OC[C@H]1O[C@@H](Oc2ccc(O)cc2)[C@H](O)[C@@H](O)[C@@H]1O [ARBUTIN] |  | 400 |  |  |  | 
10 | COc1ccccc1CNC(=O)/C=C/c1ccc(O)c(O)c1 |  | 7 |  |  | 20 | 35 to 46
11 | CCCCc1ccc(NC(=O)/C=C/c2ccc(O)c(O)c2)cc1 |  | 1.2 | 68 to 96 | 33 to 49 |  | 
12 | O=C(/C=C/c1ccc(O)c(O)c1)NCc1ccc(C(F)(F)F)cc1 | 39 to 48 | 1.6 | 26 |  |  | 
13 | O=C(/C=C/c1ccc(O)c(O)c1)NC1CCCCC1 | 23 | 2.8 |  |  |  | 
14 | O=C(/C=C/c1ccc(O)c(O)c1)NCc1cccc(Cl)c1 | 22 | 6 |  |  | 59 to 62 | 
15 | O=C(/C=C/c1ccc(O)c(O)c1)Nc1cccc([N+](=O)[O-])c1 | 48 | 1.9 | 24 to 35 |  |  | 
16 | Cc1cccc(CNC(=O)/C=C/c2ccc(O)c(O)c2)c1 | 20 | 3 |  |  | 45 | 

Row | Structure (SMILES) | viability at 10 µM [1] [%] | IC50 [2] [µM] | viability at 5 µM [3] [%] | viability at 2.5 µM [4] [%] | viability at 20 µM [5] [%] | viability at 40 µM [6] [%]
17 | O=C(/C=C/c1ccc(O)c(O)c1)NCc1ccccc1Cl |  | 6.5 |  |  |  | 0
18 | Cc1ccccc1CNC(=O)/C=C/c1ccc(O)c(O)c1 | 25 | 20 |  |  | 33 to 49 | 
19 | CC(=O)Oc1ccc(/C=C/C(=O)OC2CCCCC2)cc1OC(C)=O |  | 0.2 |  | 24 |  | 
20 | O=C(/C=C/c1ccc(O)c(O)c1)Nc1ccc(C(F)(F)F)cc1 | 77 to 90 | 1.4 | 56 to 58 |  |  | 
21 | O=C(/C=C/c1ccc(O)c(O)c1)NCc1ccccc1C(F)(F)F | 33 to 49 | 1.8 | 22 to 28 |  |  | 
22 | O=C(/C=C/c1ccc(O)c(O)c1)NCc1ccccc1 | 23 | 8 |  |  |  | 
23 | O=C(/C=C/c1ccc(O)c(O)c1)NCc1ccc(Cl)cc1 | 39 to 53 | 1.8 | 23 |  |  | 
24 | COc1ccc(CNC(=O)/C=C/c2ccc(O)c(O)c2)cc1 |  | 6.2 |  |  | 20 | 37 to 54
25 | Cc1ccc(CNC(=O)/C=C/c2ccc(O)c(O)c2)cc1 | 20 | 3.7 |  |  | 22 to 30 | 
26 | NS(=O)(=O)c1ccc(CNC(=O)/C=C/c2ccc(O)c(O)c2)cc1 |  | > 40 |  |  |  | 0
27 | O=C(CCc1ccc(O)c(O)c1)O[C@@H]1C[C@](O)(C(=O)O)C[C@@H](O)[C@H]1O |  | > 40 |  |  |  | 
28 | O=C(/C=C/c1ccc(O)c(O)c1)Nc1cccc(C(F)(F)F)c1 |  | 1.4 | 60 to 82 | 22 to 36 |  | 
29 | CC(C)(C)OC(=O)N1CCN(C(=O)/C=C/c2ccc(O)c(O)c2)CC1 |  | 5.8 |  |  | 31 | 
30 | O=C(/C=C/c1ccc(O)c(O)c1)Nc1ccc([N+](=O)[O-])cc1 | 51 to 62 | 1.4 | 30 to 35 |  |  | 
31 | O=C(/C=C/c1ccc(O)c(O)c1)N1CCCCC1 |  | 24 |  |  |  | 0
32 | CC(C)c1ccc(NC(=O)/C=C/c2ccc(O)c(O)c2)cc1 | 82 | 3.4 | 15 |  |  | 
